The values that follow come from patent US20130116267A1 (priority 2010, published 2013).

Data set [1] has as its target PI3K p110 delta (Homo sapiens, UniProt O00329). The conditions noted are these: cited from earlier work.
Data set [2] relates to influenza virus strain PR8. The data set is classed as cell-based.
The test system of data set [3] is H7N7 A/Equine/London/1416/73 influenza virus strain. The data set is classed as in vivo. The conditions noted are these: wild type mice, 10×LD50 H7N7 London strain; vs vehicle only; FIG. 3B.
Data set [4] deals with HIV-1Ba-L. Description: HIV-1 p24 levels in supernatants of infected PHA/IL-2-activated PBMC. In kind it is cell-based. To be noted: n=4 donors, PBMC cultured with 1 μM, 10 μM or 50 μM, FIG. 4.
The test system of data set [5] is PHA-activated CD4+ T cells. The data set can be described thus: CD25 expression on CD4+ T cells exposed to HIV-1 (flow cytometry). In kind it is cell-based, human. To be noted: PHA-activated CD4+ T cells exposed to HIV-1; different concentrations, n=3; FIG. 6. Background: A flow cytometer gives signals particle by particle.
The subject of data set [6] is A549 cell.
Data set [7] concerns neutrophils. To be noted: read-out: IC50 in fMLP-induced elastase exocytosis from neutrophils; cited from earlier work.
For data set [8], the system named is CD3-induced IL-2 release. To be noted: Lewis rats; cited from earlier work.

pIC50: −log10 of the molar value. “Also recorded” adds a separate entry of the source. Like-named read-outs stand apart in the source and are kept apart here.

Sequence of PI3K p110 delta (O00329 whole entry): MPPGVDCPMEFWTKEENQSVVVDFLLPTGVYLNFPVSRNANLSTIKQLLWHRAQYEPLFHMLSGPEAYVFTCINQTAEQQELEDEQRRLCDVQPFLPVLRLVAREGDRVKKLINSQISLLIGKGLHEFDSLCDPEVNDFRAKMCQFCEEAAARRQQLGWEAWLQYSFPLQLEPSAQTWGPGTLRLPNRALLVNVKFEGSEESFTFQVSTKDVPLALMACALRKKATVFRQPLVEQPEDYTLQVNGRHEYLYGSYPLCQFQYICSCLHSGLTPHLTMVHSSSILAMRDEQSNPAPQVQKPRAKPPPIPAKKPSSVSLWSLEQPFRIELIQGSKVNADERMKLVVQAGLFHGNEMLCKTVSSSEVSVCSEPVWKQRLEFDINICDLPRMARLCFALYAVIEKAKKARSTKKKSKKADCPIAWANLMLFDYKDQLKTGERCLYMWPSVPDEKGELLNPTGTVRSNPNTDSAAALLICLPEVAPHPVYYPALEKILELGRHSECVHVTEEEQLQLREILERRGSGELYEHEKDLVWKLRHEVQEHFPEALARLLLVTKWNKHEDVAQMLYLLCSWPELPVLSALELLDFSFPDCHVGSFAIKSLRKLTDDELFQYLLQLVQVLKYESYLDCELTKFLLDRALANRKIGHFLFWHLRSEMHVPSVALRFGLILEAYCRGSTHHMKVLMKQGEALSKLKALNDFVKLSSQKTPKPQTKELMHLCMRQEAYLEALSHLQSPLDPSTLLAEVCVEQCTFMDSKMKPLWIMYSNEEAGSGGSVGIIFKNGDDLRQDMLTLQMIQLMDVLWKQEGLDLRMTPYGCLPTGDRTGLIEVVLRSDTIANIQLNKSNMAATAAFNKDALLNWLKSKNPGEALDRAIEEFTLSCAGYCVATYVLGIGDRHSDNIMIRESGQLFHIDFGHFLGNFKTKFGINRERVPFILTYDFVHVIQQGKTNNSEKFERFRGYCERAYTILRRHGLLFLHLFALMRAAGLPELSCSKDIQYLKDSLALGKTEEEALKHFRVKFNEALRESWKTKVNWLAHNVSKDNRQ
Sequence of PI3K p110 delta (P27986 whole entry partner): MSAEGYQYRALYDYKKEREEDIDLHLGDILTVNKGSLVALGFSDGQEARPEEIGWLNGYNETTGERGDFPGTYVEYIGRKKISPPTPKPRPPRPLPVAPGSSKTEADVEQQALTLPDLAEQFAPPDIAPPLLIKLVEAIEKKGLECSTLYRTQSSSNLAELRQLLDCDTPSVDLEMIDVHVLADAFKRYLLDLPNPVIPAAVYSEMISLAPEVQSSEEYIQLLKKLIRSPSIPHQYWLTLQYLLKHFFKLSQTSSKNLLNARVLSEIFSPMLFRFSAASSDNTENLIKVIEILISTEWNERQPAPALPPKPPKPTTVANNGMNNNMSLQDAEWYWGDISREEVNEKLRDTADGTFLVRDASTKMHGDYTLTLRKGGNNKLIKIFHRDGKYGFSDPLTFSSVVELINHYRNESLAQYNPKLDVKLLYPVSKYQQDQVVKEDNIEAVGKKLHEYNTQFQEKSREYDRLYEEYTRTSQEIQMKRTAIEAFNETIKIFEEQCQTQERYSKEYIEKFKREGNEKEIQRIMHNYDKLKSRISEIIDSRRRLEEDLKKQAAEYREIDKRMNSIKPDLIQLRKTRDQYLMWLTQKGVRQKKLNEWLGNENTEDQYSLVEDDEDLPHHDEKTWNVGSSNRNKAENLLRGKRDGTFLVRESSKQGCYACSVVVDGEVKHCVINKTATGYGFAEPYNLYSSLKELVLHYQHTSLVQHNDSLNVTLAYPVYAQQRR

With `COc1ncc(-c2ccc3nccc(-c4ccncc4)c3c2)cc1NS(=O)(=O)c1ccc(F)cc1F` [Compound (XXXII), 2,4-difluoro-N-(2-methoxy-5-(4-(pyridin-4-yl)quinolin-6-yl)pyridin-3-yl)-benzenesulfonamide], the pIC50 in data set [1] (read-out: apparent PI3K p110 delta IC50) was 10.62.
Consider `Cc1ccccc1-n1c(Cn2cnc3c(N)ncnc32)nc2cccc(C)c2c1=O` [IC87114, 2-[(6-amino-9H-purin-9-yl)methyl]-5-methyl-3-(o-tolyl)quinazolin-4(3H)-one], for which the influenza virus replication entry in data set [2] is “inhibits influenza virus replication”. In data set [2] (A549 epithelial cell line infected with influenza virus, FIG. 1B: 100 μM, PR8, MOI=0.01), the “viral mRNA production reduced compared to untreated cells” value is approximately 25 fold. The “survival after lethal challenge” value in data set [3] is listed as “increased survival; also recorded: protects mice lethally challenged”. Further, the “reduction of 48 hour HIV-1 p24 levels” value in data set [4] is on record as “approximately 80%”. Further, the CD25 expression entry in data set [5] is given as “not affected”. The “survival of A549 cell” value in data set [6] is given as “did not affect the survival”.
`Cc1noc2nc(C(C)Sc3ncnc4[nH]cnc34)n(-c3ccccc3)c(=O)c12` (stereo not drawn) [Compound (V), 6-(1-((9H-purin-6-yl)thio)ethyl)-3-methyl-5-phenylisoxazolo[5,4-d]pyrimidin-4(5H)-one]: in data set [7], the pIC50 is 5.92.
In the case of `COCC(O)Cn1cc(-c2ccc3c(c2)N(c2nc4c(s2)C(=O)NC(C)(C)C4)CCO3)cn1` (stereo not drawn) [Compound (XXI), 2-(6-(1-(2-hydroxy-3-methoxypropyl)-1H-pyrazol-4-yl)-2H-benzo[b][1,4]oxazin-4(3H)-yl)-6,6-dimethyl-6,7-dihydrothiazolo[5,4-c]pyridin-4(5H)-one], in data set [8], the “ED50 in a CD3-induced IL-2 release study” value is reported as 5 mg/kg.
Regarding `CC(c1nc2ccsc2c(=O)n1-c1ccccc1)n1cnc2c(N)ncnc21` (stereo not drawn) [Compound (IV), 2-(1-(6-amino-9H-purin-9-yl)ethyl)-3-phenylthieno[3,2-d]pyrimidin-4(3H)-one], the pIC50 in data set [1] (read-out: PI3K p110 delta IC50) is 7.40.
In the case of `Nc1nc(N)c2nc(-c3cccc4[nH]ccc34)cnc2n1` [Compound (XXIX), 6-(1H-indol-4-yl)pteridine-2,4-diamine], in data set [1] (read-out: PI3K p110 delta IC50), the pIC50 was 7.19.
On to `Cc1oc2ncn(CC(C)C)c(=O)c2c1C(=O)NCc1cccnc1` [Compound (VI), 3-isobutyl-6-methyl-4-oxo-N-(pyridin-3-ylmethyl)-3,4-dihydrofuro[2,3-d]pyrimidine-5-carboxamide], for which the pIC50 in data set [1] (read-out: PI3K p110 delta IC50) was 5.92.
